One may read the IC50 as the point on the concentration scale where inhibition reaches its midpoint.

In test [1] the target is NAMPT (human, recombinant, C-terminally His-tagged) (Homo sapiens, UniProt P43490). Briefly: Time-Resolved Fluorescence Resonance Energy Transfer (TR-FRET) Binding Assay of NAMPT. The settings on record: 6.8 nM NAMPT, 200 nM probe, equilibrated 3 hours, absence of substrates. In short, it runs like this:
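Recombinant C-terminally His-tagged human NAMPT (6.8 nM) incubated 3 h at room temperature with 200 nM Oregon Green 488–labelled nicotinamide-competitive probe and 1 nM Tb-anti-His antibody in HEPES pH 7.5, 2% DMSO. TR-FRET ratio Em520/Em495 normalized to controls; IC50 from four-parameter logistic fit.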

Test [2] addresses NAMPT (Homo sapiens, UniProt P43490). Briefly: Time-Resolved Fluorescence Resonance Energy Transfer (TR-FRET) Binding Assay of NAMPT with PRPP. The settings on record: 2 nM NAMPT, 2 nM probe, 200 uM PRPP and 2.5 mM ATP, equilibrated 16 hours. In short, it runs like this:
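Final mix: 2 nM NAMPT, 2 nM probe, 1 nM Tb-anti-His antibody, 200 uM PRPP, 2.5 mM ATP, 2% DMSO in 1× assay buffer. Equilibrated 16 hours before TR-FRET read, allowing possible enzymatic modification of compounds.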
(Time-resolved FRET reads energy transfer from a long-lived donor to a nearby acceptor.)

NAMPT (human, recombinant, C-terminally His-tagged), sequence (P43490 whole entry): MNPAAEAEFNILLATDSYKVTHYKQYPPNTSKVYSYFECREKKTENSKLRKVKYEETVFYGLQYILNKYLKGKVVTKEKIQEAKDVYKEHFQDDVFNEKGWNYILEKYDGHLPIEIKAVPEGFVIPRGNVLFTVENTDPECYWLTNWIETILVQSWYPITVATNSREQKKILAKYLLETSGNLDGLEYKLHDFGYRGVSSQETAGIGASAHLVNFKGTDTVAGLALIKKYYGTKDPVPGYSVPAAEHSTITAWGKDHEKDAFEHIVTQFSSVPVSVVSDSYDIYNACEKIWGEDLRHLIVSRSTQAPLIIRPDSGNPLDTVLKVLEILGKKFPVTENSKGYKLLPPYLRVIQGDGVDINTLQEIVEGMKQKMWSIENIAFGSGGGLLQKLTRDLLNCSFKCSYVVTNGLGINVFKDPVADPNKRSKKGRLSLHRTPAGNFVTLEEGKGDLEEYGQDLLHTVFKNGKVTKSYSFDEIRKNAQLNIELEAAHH
NAMPT, sequence (P43490 whole entry): as above

As to `O=C(Nc1ccc(C2CCN(C(=O)c3ccoc3)CC2)cc1)C1CN(c2cccnc2)C1` [Example 104, N-{4-[1-(furan-3-ylcarbonyl)piperidin-4-yl]phenyl}-1-(pyridin-3-yl)azetidine-3-carboxamide], the results for the IC50 in test [1] and in test [2] were 1200 pM and 193 pM, respectively.

In the case of `O=C(Nc1ccc(C2CCN(C(=O)CN3CCCC3)CC2)cc1)C1CN(c2cccnc2)C1` [Example 105, 1-(pyridin-3-yl)-N-{4-[1-(pyrrolidin-1-ylacetyl)piperidin-4-yl]phenyl}azetidine-3-carboxamide], the IC50 worked out at 296000 pM in test [1] and 244 pM in test [2].

Turning to `O=C1CC[C@H](C(=O)N2CCC(c3ccc(NC(=O)C4CN(c5cccnc5)C4)cc3)CC2)N1` [Example 106, N-{4-[1-(5-oxo-D-prolyl)piperidin-4-yl]phenyl}-1-(pyridin-3-yl)azetidine-3-carboxamide], the results for the IC50 in test [1] and in test [2] were 160000 pM and 221 pM, respectively.

Regarding `CN(C)CCC(=O)N1CCC(c2ccc(NC(=O)C3CN(c4cccnc4)C3)cc2)CC1` [Example 107, N-{4-[1-(N,N-dimethyl-beta-alanyl)piperidin-4-yl]phenyl}-1-(pyridin-3-yl)azetidine-3-carboxamide], the IC50 in test [1] is 163000 pM; in test [2] it was 169 pM.

As to `O=C(Nc1ccc(C2CCN(C(=O)c3nccs3)CC2)cc1)C1CN(c2cccnc2)C1` [Example 108, 1-(pyridin-3-yl)-N-{4-[1-(1,3-thiazol-2-ylcarbonyl)piperidin-4-yl]phenyl}azetidine-3-carboxamide], the IC50 in test [1] was found to be 3330 pM; in test [2] it was 176 pM.

Consider `O=C(Nc1ccc(C2CCN(C(=O)c3ccsc3)CC2)cc1)C1CN(c2cccnc2)C1` [Example 109, 1-(pyridin-3-yl)-N-{4-[1-(thiophen-3-ylcarbonyl)piperidin-4-yl]phenyl}azetidine-3-carboxamide], for which the figures for the IC50 in test [1] and in test [2] were 5030 pM and 398 pM, respectively.

Consider `CC1(C(=O)N2CCC(c3ccc(NC(=O)C4CN(c5cccnc5)C4)cc3)CC2)CC1` [Example 110, N-(4-{1-[(1-methylcyclopropyl)carbonyl]piperidin-4-yl}phenyl)-1-(pyridin-3-yl)azetidine-3-carboxamide], for which the IC50 in test [1] worked out at 6630 pM; in test [2] it was 169 pM.

Consider `Cc1ccsc1C(=O)N1CCC(c2ccc(NC(=O)C3CN(c4cccnc4)C3)cc2)CC1` [Example 111, N-(4-{1-[(3-methylthiophen-2-yl)carbonyl]piperidin-4-yl}phenyl)-1-(pyridin-3-yl)azetidine-3-carboxamide], for which the IC50 in test [1] was 2840 pM; in test [2], 199 pM.

With `O=C(Nc1ccc(C2CCN(C(=O)CCC(F)(F)F)CC2)cc1)C1CN(c2cccnc2)C1` [Example 112, 1-(pyridin-3-yl)-N-{4-[1-(4,4,4-trifluorobutanoyl)piperidin-4-yl]phenyl}azetidine-3-carboxamide], the figures for the IC50 in test [1] and in test [2] were 40200 pM and 362 pM, respectively.

As to `CN1CCN(CC(=O)N2CCC(c3ccc(NC(=O)C4CN(c5cccnc5)C4)cc3)CC2)CC1` [Example 113, N-(4-{1-[(4-methylpiperazin-1-yl)acetyl]piperidin-4-yl}phenyl)-1-(pyridin-3-yl)azetidine-3-carboxamide], the IC50 is 60600 pM in test [1] and 254 pM in test [2].

For `O=C1CC[C@@H](C(=O)N2CCC(c3ccc(NC(=O)C4CN(c5cccnc5)C4)cc3)CC2)N1` [Example 114, N-{4-[1-(5-oxo-L-prolyl)piperidin-4-yl]phenyl}-1-(pyridin-3-yl)azetidine-3-carboxamide], the IC50 came to 83900 pM in test [1] and 247 pM in test [2].

Take `CCOCCC(=O)N1CCC(c2ccc(NC(=O)C3CN(c4cccnc4)C3)cc2)CC1` [Example 115, N-{4-[1-(3-ethoxypropanoyl)piperidin-4-yl]phenyl}-1-(pyridin-3-yl)azetidine-3-carboxamide]: the IC50 worked out at 48200 pM in test [1] and 178 pM in test [2].

Source of the values: patent US8975398B2, “NAMPT inhibitors” (AbbVie Inc., priority 2012, dated 2015).
